What was measured:
Test in all cases: relative viability (nuclei count vs DMSO), 5 days (fraction); higher = more cells survive
BAY61-3606 + OSI-027 = compound: COC1=C(C=C(C=C1)C2=CC3=NC=CN3C(=N2)NC4=C(C=CC=N4)C(=O)N)OC [BAY61-3606] + COc1cccc2cc(-c3nc([C@H]4CC[C@H](C(=O)O)CC4)n4ncnc(N)c34)[nH]c12 [OSI-027] (partner 0.5 µM)
Summary of the method: (§1)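 For relative viability, nuclei counts in treated wells were divided by those in vehicle wells. Lung cancer cell lines had been pin-tool dosed in 1536-well plates the day after seeding and cultured for 5 days, then fixed and stained in one step (final 0.05% Triton X-100, 1% formaldehyde, 1 ug/ml Hoechst) and imaged at 4×. Doses were one drug alone or a fixed anchor-drug dose plus five library-drug doses (not always all listed) in √10 steps, and values are duplicate-plate medians.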

BAY61-3606 + Crizotinib = compound: COC1=C(C=C(C=C1)C2=CC3=NC=CN3C(=N2)NC4=C(C=CC=N4)C(=O)N)OC [BAY61-3606] + C[C@@H](Oc1cc(-c2cnn(C3CCNCC3)c2)cnc1N)c1c(Cl)ccc(F)c1Cl [Crizotinib] (partner 1 µM)
Summary of the method: as §1

Doxorubicin + Phenformin = compound: COc1cccc2c1C(=O)c1c(O)c3c(c(O)c1C2=O)C[C@@](O)(C(=O)CO)C[C@@H]3O[C@H]1C[C@H](N)[C@H](O)[C@H](C)O1 [Doxorubicin] + N=C(N)NC(=N)NCCc1ccccc1 [Phenformin] (partner 250 µM)
Summary of the method: as §1

Doxorubicin + Pemetrexed = compound: COc1cccc2c1C(=O)c1c(O)c3c(c(O)c1C2=O)C[C@@](O)(C(=O)CO)C[C@@H]3O[C@H]1C[C@H](N)[C@H](O)[C@H](C)O1 [Doxorubicin] + Nc1nc2[nH]cc(CCc3ccc(C(=O)N[C@@H](CCC(=O)O)C(=O)O)cc3)c2c(=O)[nH]1 [Pemetrexed] (partner 0.2 µM)
Summary of the method: as §1

Cell Line: UMC-11
- relative viability (BAY61-3606 + OSI-027; first compound 0.02 µM): 0.544
- relative viability (BAY61-3606 + OSI-027; first compound 0.06325 µM): 0.467
- relative viability (BAY61-3606 + OSI-027; first compound 0.2 µM): 0.476
- relative viability (BAY61-3606 + OSI-027; first compound 0.6325 µM): 0.461
- relative viability (BAY61-3606 + OSI-027; first compound 2 µM): 0.375
- relative viability (BAY61-3606 + Crizotinib; first compound 0.02 µM): 0.664
- relative viability (BAY61-3606 + Crizotinib; first compound 0.06325 µM): 0.613
- relative viability (BAY61-3606 + Crizotinib; first compound 0.2 µM): 0.503
- relative viability (BAY61-3606 + Crizotinib; first compound 0.6325 µM): 0.762
- relative viability (BAY61-3606 + Crizotinib; first compound 2 µM): 0.509
- relative viability (Doxorubicin + Phenformin; first compound 0.001 µM): 0.307
- relative viability (Doxorubicin + Phenformin; first compound 0.003162 µM): 0.247
- relative viability (Doxorubicin + Phenformin; first compound 0.01 µM): 0.313
- relative viability (Doxorubicin + Phenformin; first compound 0.03162 µM): 0.207
- relative viability (Doxorubicin + Phenformin; first compound 0.1 µM): 0.233
- relative viability (Doxorubicin + Pemetrexed; first compound 0.001 µM): 0.831
- relative viability (Doxorubicin + Pemetrexed; first compound 0.003162 µM): 0.901
- relative viability (Doxorubicin + Pemetrexed; first compound 0.01 µM): 0.823
- relative viability (Doxorubicin + Pemetrexed; first compound 0.03162 µM): 0.645
- relative viability (Doxorubicin + Pemetrexed; first compound 0.1 µM): 0.636

Source: the supplement of paper PMC10307832
